The text below walks through data of patent US9809640B2, “ApoE peptide dimers and uses thereof” (priority 2010, dated 2017).

Positions of bridges follow the written chain, without caps; N, C: chain ends. Chains are numbered I, II in the order given.

Common to all, as to assay type: cell-based
One test has as its system MB231 cells. Description: Apoptosis after 24 hours of COG445. The settings on record: 1-1000 nM.
The next test relates to BV2 microglia cells. The experiment in a line: LPS-induced nitric oxide production in BV2 microglia cells. The method, then: FIG. 1. COG 112 inhibits LPS-induced production of inflammatory cytokines in BV2 microglia cells. Inhibition curves for COG112 in the production of NO (green squares), TNFα (red diamonds), and IL-6 (blue triangles) by BV2 microglia. Compounds were added to the final concentrations indicated on the graph along with 100 ng/mL of LPS. After 24 hours the media was removed and assayed by two-site ELISA (BioSource) and quantitated relative to a standard curve on the same plate.
FIG. 3. NO Inhibition curve for COG449. BV2 microglia were treated with COG449 at the final concentrations indicated on the graph, along with 100 ng/mL of LPS. After 24 hours the media was removed and assayed by two-site ELISA (BioSource) and quantitated relative to a standard curve on the same plate.
We also evaluated the various peptides for efficacy in suppressing nitric oxide production induced by LPS stimulation of BV2 microglia cells as a measure of anti-inflammatory activity as well as the maximum dose tolerated in mice (Table I and FIG. 6A). For the LPS assay, EC50 is the concentration of compound that caused a 50% suppression of nitric oxide release from BV2 cells following LPS stimulation. For mouse toxicity, MTD is the maximum dose of the compound that can be given by intravenous injection without causing deaths after 24 hrs. […] Coupling the ApoE domain to a protein transduction domain further enhanced the potency of the dimers.
Low passage BV2 microglial cell cultures are maintained in 10% HI (Heat Inactivated) FBS DMEM media (supplemented with MEM NEAA (Non-Essential Amino Acids), sodium pyruvate and Pen-Strep) and continuously cultured until needed. To determine the IC50 values for NO production, peptides are added to BV2 cultures in 1% HI FBS DMEM media (supplemented with MEM NEAA and sodium pyruvate) at a range of final assay concentrations from 1.0 μM in 2 fold dilutions to 7.8 nM followed immediately by addition of LPS (100 ng/mL final concentration) as previously described (Laskowitz et al. (2001) Exp Neurol, Vol. 167(1): 74-85). After incubating for 18±1 hours, conditioned media is removed for analysis of nitrite (the stable oxidation product of released nitric oxide) by the Griess colorimetric assay (Promega). Remaining cells are assayed for viability in an MTT assay (Promega) and the nitrite assay values are normalized for each concentration using the percent viability of cells in the MTT assay. […] Typically, the absence of LPS exposure to BV2 cells results in levels below the limit of detection in our assays. Similarly, addition of any of the peptides up to 25 μM without LPS results in undetectable NO levels.

For another test, the system named is PP2A. Description: PP2A activity in 32D:BCR/Abl chronic myelogenous leukemia cells (PP2A immunoprecipitation assay). To be noted: 1 μM, 32D:BCR/Abl cells. As to the method:
FIGS. 4A-4B. The BMOE-linked dimer peptide COG449 activates PP2A in CML cells. FIG. 4A: 32D-BCR/Abl chronic myelogenous leukemia cells were treated with COG449 (1 μM), COG445 (1 μM) (disulfide-linked COG112 dimer) or no treatment, and the PP2A activity was measured. FIG. 4B: 32D:BCR/Abl cell cultures were treated with no compound, 1 μM COG449, or 5 μM FTY720 for 30 minutes followed by lysis in an NP40 lysis buffer. PP2A was immunoprecipitated and assayed with the PP2A Immunoprecipitation assay kit (Upstate) according to the manufacturer's directions.
To further evaluate the effect of COG449, we measured the ability of the stable dimerized COG449 compound to activate PP2A in 32D:p210^BCR/Abl chronic myelogenous leukemia cells. […] 32D:p210^BCR/Abl chronic myelogenous leukemia cells were treated with no compound, 1 μM COG449, or 5 μM FTY720. We observed a robust increase of approximately 45% relative specific activity (phosphate release/minute/unit protein) of PP2A upon treatment with COG449 alone when compared to the untreated control, and about 20% activation compared with FTY720 (FIG. 4B).

Another test has as its system Akt. Description: EGF-induced Akt activation, Western blot. From the text: FIGS. 10A-10B. […] FIG. 10A: Western blot analysis of U87 glioblastoma cells exposed to the indicated concentrations of COG445 peptide in the presence of EGF. The blot is probed with antibodies for the activated EGF receptor (P-EGFR), total EGF receptor, activated PDK1 (P-PDK1), and total PDK1. FIG. 10B: Western blot and densitometry analysis of Akt activation induced by EGF in U87 cells in the presence of increasing concentrations of COG445.
Akt signaling is often dysregulated in cancers thereby promoting cellular survival and proliferation. […] Given the effect of ApoE peptides on other inflammatory pathologies, we investigated the effect of an ApoE peptide dimer on Akt signaling in breast and brain cancer cells. A disulfide dimer of COG112 (SEQ ID NO: 1) was prepared as described in Example 1 (COG445). Adherent breast cancer cells, MDA-MB-231 (MB231), or glioblastoma cells, U87-MG (U87), were serum starved overnight and then exposed to COG445 for 2 hours before stimulating with epidermal growth factor (EGF) for 5 minutes. […] EGFR activation results in the activation of the PI3K/Akt signaling pathway, which is mediated by PDK1 activation.

The EC50 is the concentration that produces a half-maximal response. A lower EC50 goes with a more potent agent. For the substance “I: Ac-RQIKIWFQNRRMKWKKCLRVRLASHLRKLRKRLL-NH2 / II: Ac-RQIKIWFQNRRMKWKKCLRVRLASHLRKLRKRLL-NH2 (disulfide I:17-II:17) [COG445, COG112-C-C-COG112]”, the apoptosis entry in the test with MB231 cells is “no indication of apoptosis”. The substance also yielded an EC50 in the test on BV2 microglia cells (50% suppression of nitric oxide release from BV2 cells following LPS stimulation) below 1000 nM. Moreover, the IC50 with BV2 microglia cells (BV2 cells, LPS 100 ng/mL, read-out: IC50 for NO production/release) was found to be 20 nM. Moreover, the “phosphate release due to activation of PP2A relative to untreated control cells” value with PP2A is reported as “increased phosphate release”. In addition, in the test with Akt (100 nM, both cell lines, significant at 1 μM), the “Akt serine 473 phosphorylation” value is listed as “decreased”. Besides, the Akt activation entry in the test with Akt (MB231 and U87 cells, EGF) is given as “dose-dependent decrease”. The “Akt phosphorylation in the presence of okadaic acid” value in the test with Akt (MB231 cells) is reported as “did not inhibit”.
